PMC6257473, “Artificial Self-Sufficient P450 in Reversed Micelles” (Molecules, 2010)

Molecular target: T1, A. pernix ADH (Aeropyrum pernix, UniProt Q9Y9P9)
T1 construct: heat treatment, DEAE Sepharose and Superdex 200
T1 sequence (Q9Y9P9 1-344): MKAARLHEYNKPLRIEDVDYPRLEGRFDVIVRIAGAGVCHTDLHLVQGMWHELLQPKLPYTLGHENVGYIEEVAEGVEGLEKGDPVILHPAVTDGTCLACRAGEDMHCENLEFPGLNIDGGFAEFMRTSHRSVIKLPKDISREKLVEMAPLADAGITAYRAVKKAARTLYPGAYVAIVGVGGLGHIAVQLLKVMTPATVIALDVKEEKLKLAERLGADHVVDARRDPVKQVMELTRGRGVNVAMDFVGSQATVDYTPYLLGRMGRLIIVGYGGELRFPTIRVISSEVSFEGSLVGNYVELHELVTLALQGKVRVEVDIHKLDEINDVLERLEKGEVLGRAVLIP
Test: NADH formation, initial rate
Assay type: biochemical
Conditions: 70 μM NAD+, 25 °C

| SMILES | NADH formation, initial rate (aqueous, 50 mM potassium phosphate pH 7.4, 150 mM KCl, 1.2 μM enzyme, substrate activation) | NADH formation, initial rate (CTAB/2-pentanol/isooctane reversed micelles, W0 16.7, 2-pentanol as co-substrate) |
| --- | --- | --- |
| CCCC(C)O (centres unmarked) [2-pentanol] | substrate activation was also observed when using 2-pentanol as a substrate in water | – |
| NC(=O)c1ccc[n+]([C@@H]2O[C@H](COP(=O)(O)OP(=O)(O)OC[C@H]3O[C@@H](n4cnc5c(N)ncnc54)[C@H](O)[C@@H]3O)[C@@H](O)[C@H]2O)c1 [NAD^+] | – | A. pernix ADH showed NAD^+ reduction activity in a CTAB/2-pentanol/isooctane reversed micellar system |
